According to ChEMBL document CHEMBL5500384, “New synergistic benzoquinone scaffolds as inhibitors of mycobacterial cytochrome bc1 complex to treat multi-drug resistant tuberculosis” (Eur J Med Chem, 2024):
Converted amounts (≈) assume the structure as drawn.

How the values were obtained:
[1] = tested on: Mycolicibacterium smegmatis; experiment: Antibacterial activity against Mycobacterium smegmatis ATCC 14468 assessed as log2 fold change in methylase expression at 3 ug/ml incubated for 12 hrs by mass spectrometric analysis; format: functional; conditions: dose 3 µg/ml
[2] = tested on: Mycolicibacterium smegmatis; experiment: Antibacterial activity against Mycobacterium smegmatis ATCC 14468 assessed as log2 fold change in TnpC protein expression at 3 ug/ml incubated for 12 hrs by mass spectrometric analysis; format: functional; conditions: dose 3 µg/ml
[3] = tested on: Mycolicibacterium smegmatis; experiment: Antibacterial activity against Mycobacterium smegmatis ATCC 14468 assessed as log2 fold change in TrkA expression at 3 ug/ml incubated for 12 hrs by mass spectrometric analysis; format: functional; conditions: dose 3 µg/ml
[4] = Cytotoxicity against african green monkey Vero cells assessed as cell viability at 6.25 ug/ml by MTT assay; format: toxicity, cell-based; conditions: chlorocebus sabaeus, at 6.25 µg/mL, read-out: Activity
[5] = Acute toxicity in Albino mouse assessed as change in platelet count at 50 to 2000 mg/kg, po measured after 14 days (reference value: 3.24 mm3); format: organism-based; design: unit not given here; conditions: in vivo, 336 h, dose 50-2000 mg/kg, time 14 day
[6] = tested on: Mycolicibacterium smegmatis; experiment: Antibacterial activity against Mycobacterium smegmatis ATCC 14468 assessed as log2 fold change in transposase expression at 3 ug/ml incubated for 12 hrs by mass spectrometric analysis; format: functional; conditions: dose 3 µg/ml
[7] = Acute toxicity in Albino mouse assessed as change in SGOT count at 50 to 2000 mg/kg, po measured after 14 days (reference value: 42 IU/L); format: organism-based; conditions: in vivo, 336 h, dose 50-2000 mg/kg, time 14 day
[8] = tested on: Mycolicibacterium smegmatis; experiment: Antibacterial activity against Mycobacterium smegmatis ATCC 14468 assessed as log2 fold change in DL-gamma-Amino-beta-hydroxybutyric acid metabolite level by mass spectrometry analysis; format: functional
[9] = Renal toxicity in Albino mouse assessed as change in renal tubules at 50 to 2000 mg/kg, po measured after 14 days; format: organism-based; conditions: in vivo, 336 h, dose 50-2000 mg/kg, time 14 day
[10] = tested on: Mycolicibacterium smegmatis; experiment: Antibacterial activity against Mycobacterium smegmatis ATCC 14468 assessed as log2 fold change in signal transduction histidine kinase expression at 3 ug/ml incubated for 12 hrs by mass spectrometric analysis; format: functional; conditions: dose 3 µg/ml
[11] = tested on: Mycolicibacterium smegmatis; experiment: Antibacterial activity against Mycobacterium smegmatis ATCC 14468 assessed as log2 fold change in L-(-)-methionine metabolite level by mass spectrometry analysis; format: functional
[12] = Acute toxicity in Albino mouse assessed as change in LDH level at 50 to 2000 mg/kg, po measured after 14 days (reference value: 1052 IU/L); format: organism-based; conditions: in vivo, 336 h, dose 50-2000 mg/kg, time 14 day
[13] = tested on: Mycolicibacterium smegmatis; experiment: Antibacterial activity against Mycobacterium smegmatis ATCC 14468 assessed as log2 fold change in cytochrome bc1 complex Rieske-iron-sulfur subunit expression at 3 ug/ml incubated for 12 hrs by mass spectrometric analysis; format: functional; conditions: dose 3 µg/ml
[14] = Renal toxicity in Albino mouse assessed as extravasation of RBC at 50 to 2000 mg/kg, po measured after 14 days; format: organism-based, Erythrocyte; conditions: in vivo, 336 h, dose 50-2000 mg/kg, time 14 day
[15] = tested on: Mycolicibacterium smegmatis; experiment: Antibacterial activity against Mycobacterium smegmatis ATCC 14468 assessed as log2 fold change in dihydroorotate dehydrogenase expression at 3 ug/ml incubated for 12 hrs by mass spectrometric analysis; format: functional; conditions: dose 3 µg/ml
[16] = Hepatotoxicity in Albino mouse assessed as change in hepatic artery at 50 to 2000 mg/kg, po measured after 14 days; format: toxicity, organism-based, Liver; conditions: in vivo, 336 h, dose 50-2000 mg/kg, time 14 day
[17] = Acute toxicity in Albino mouse assessed as change in ALP level at 50 to 2000 mg/kg, po measured after 14 days (reference value: 28 IU/L); format: organism-based; conditions: in vivo, 336 h, dose 50-2000 mg/kg, time 14 day
[18] = Pulmonary toxicity in Albino mouse assessed as change in bronchi structure at 50 to 2000 mg/kg, po measured after 14 days; format: organism-based; conditions: in vivo, 336 h, dose 50-2000 mg/kg, time 14 day
[19] = Acute toxicity in Albino mouse assessed as change in RBC count measured per million cells at 50 to 2000 mg/kg, po measured after 14 days (reference value: 9.15 microL); format: organism-based, Erythrocyte; conditions: in vivo, 336 h, dose 50-2000 mg/kg, time 14 day
[20] = Acute toxicity in Albino mouse assessed as change in ESR at 50 to 2000 mg/kg, po measured after 14 days (reference value: 10 millimeter); format: organism-based; conditions: in vivo, 336 h, dose 50-2000 mg/kg, time 14 day
[21] = Cytotoxicity against african green monkey Vero cells assessed as cell viability at 100 ug/ml by MTT assay; format: toxicity, cell-based; conditions: chlorocebus sabaeus, at 100 µg/mL, read-out: Activity
[22] = Acute toxicity in Albino mouse assessed as change in total leucocyte count at 50 to 2000 mg/kg, po measured after 14 days (reference value: 7400 mm3); format: organism-based; conditions: in vivo, 336 h, dose 50-2000 mg/kg, time 14 day
[23] = tested on: Mycolicibacterium smegmatis; experiment: Antibacterial activity against Mycobacterium smegmatis ATCC 14468 assessed as log2 fold change in ABC transporter ATP binding protein expression at 3 ug/ml incubated for 12 hrs by mass spectrometric analysis; format: functional; conditions: dose 3 µg/ml
[24] = Hepatotoxicity in Albino mouse assessed as change in hepatocytes at 50 to 2000 mg/kg, po measured after 14 days; format: toxicity, organism-based; conditions: in vivo, 336 h, dose 50-2000 mg/kg, time 14 day
[25] = tested on: Mycobacterium tuberculosis; experiment: Antitubercular activity against Mycobacterium tuberculosis H37Rv incubated for 5 days by microtiter plate method; format: functional; conditions: 120 h, time 5 day
[26] = tested on: Mycolicibacterium smegmatis; experiment: Antibacterial activity against Mycobacterium smegmatis ATCC 14468 assessed as reduction in bacterial growth at 12 ug/ml incubated for 48 hrs by spectrometry analysis; format: functional; design: scale not given: the % may be the effect or the level left; conditions: dose 12 µg/ml
[27] = tested on: Mycolicibacterium smegmatis; experiment: Antibacterial activity against Mycobacterium smegmatis ATCC 14468 assessed as log2 fold change in integral membrane protein expression at 3 ug/ml incubated for 12 hrs by mass spectrometric analysis; format: functional; conditions: dose 3 µg/ml
[28] = Acute toxicity in Albino mouse assessed as change in hemoglobin level at 50 to 2000 mg/kg, po measured after 14 days (reference value: 12.8 g/dl); format: organism-based; conditions: in vivo, 336 h, dose 50-2000 mg/kg, time 14 day
[29] = tested on: Mycolicibacterium smegmatis; experiment: Antibacterial activity against Mycobacterium smegmatis ATCC 14468 assessed as log2 fold change in GluD expression at 3 ug/ml incubated for 12 hrs by mass spectrometric analysis; format: functional; conditions: dose 3 µg/ml
[30] = Hepatotoxicity in Albino mouse assessed as change in bile duct at 50 to 2000 mg/kg, po measured after 14 days; format: toxicity, organism-based, Liver; conditions: in vivo, 336 h, dose 50-2000 mg/kg, time 14 day
[31] = Pulmonary toxicity in Albino mouse assessed as change in squamous pneumocytes at 50 to 2000 mg/kg, po measured after 14 days; format: organism-based; conditions: in vivo, 336 h, dose 50-2000 mg/kg, time 14 day
[32] = Renal toxicity in Albino mouse assessed as change in tubular capillaries at 50 to 2000 mg/kg, po measured after 14 days; format: organism-based; conditions: in vivo, 336 h, dose 50-2000 mg/kg, time 14 day
[33] = tested on: Mycolicibacterium smegmatis; experiment: Antibacterial activity against Mycobacterium smegmatis ATCC 14468 assessed as log2 fold change in shikimate transporter expression at 3 ug/ml incubated for 12 hrs by mass spectrometric analysis; format: functional; conditions: dose 3 µg/ml
[34] = tested on: Mycolicibacterium smegmatis; experiment: Antibacterial activity against Mycobacterium smegmatis ATCC 14468 assessed as log2 fold change in adenosine metabolite level by mass spectrometry analysis; format: functional
[35] = Acute toxicity in Albino mouse assessed as mortality at 2000 mg/kg, po after 2 to 4 hrs; format: organism-based; conditions: in vivo, time 2-4 hrs
[36] = tested on: Mycolicibacterium smegmatis; experiment: Antibacterial activity against Mycobacterium smegmatis ATCC 14468 assessed as log2 fold change in citrate transporter expression at 3 ug/ml incubated for 12 hrs by mass spectrometric analysis; format: functional; conditions: dose 3 µg/ml
[37] = Acute toxicity in Albino mouse assessed as change in serum creatine level at 50 to 2000 mg/kg, po measured after 14 days (reference value: 0.9 mg/dl); format: organism-based; conditions: in vivo, 336 h, dose 50-2000 mg/kg, time 14 day
[38] = Acute toxicity in Albino mouse assessed as change in eosinophils at 50 to 2000 mg/kg, po measured after 14 days (reference value: 3%); format: organism-based; conditions: in vivo, 336 h, dose 50-2000 mg/kg, time 14 day

SMILES | log2FC [1] | log2FC [2] | log2FC [3] | viability at 6.25 ug/ml [4] [%] | log2FC [6] | Activity [7] [IU/L] | log2FC [8] | Activity [9] | log2FC [10] | log2FC [11] | Activity [12] [IU/L] | log2FC [13] | Activity [14] | log2FC [15] | Activity [16] | Activity [17] [IU/L] | Activity [18] | Activity [20] [millimeter/hr] | viability at 100 ug/ml [21] [%] | Activity [22] [mm3] | also measured
COc1ccc(C2C(Cl)C(=O)N2C2=C(Cl)C(=O)c3ccccc3C2=O)cc1 (stereo not given) | -6.64 | -6.64 | -6.64 | 100 | -1.22 | 95 | -2.72 | Non-Toxic | -6.64 | -5.44 | 842 | 1.4 | Non-Toxic | -1.89 | Non-Toxic | 44 | Non-Toxic | 15 | 0.7 | 9600 | Activity [5]: 5.82; Activity [19]: 9.4; log2FC [23]: -1.98; Activity [24]: Non-Toxic; MIC [25]: 31.1 µM (≈ 12.5 µg/mL); Activity [26]: 80%; log2FC [27]: -6.64; Activity [28]: 13.9 g/dL; log2FC [29]: -1.11; Activity [30]: Non-Toxic; Activity [31]: Non-Toxic; Activity [32]: Non-Toxic; log2FC [33]: -6.64; log2FC [34]: -2.55; Activity [35]: Toxic; log2FC [36]: -1.76; Activity [37]: 0.8 mg/dL; Activity [38]: 4%
O=C1C(Cl)=C(Cl)C(=O)c2ccccc21 [Dichlon] | -1.53 | -2.19 | -6.64 | 100 | -1.92 | 29 | -2.75 | Non-Toxic | -6.64 | -3.97 | 1030 | 6.64 | Non-Toxic | -1.92 | Non-Toxic | 33 | Non-Toxic | 20 | 28.7 | 10400 | log2FC [23]: -2.17; Activity [24]: Non-Toxic; MIC [25]: 13.8 µM (≈ 3.12 µg/mL); Activity [26]: 80%; log2FC [27]: -6.64; Activity [28]: 14.3 g/dL; log2FC [29]: -3.7; Activity [30]: Non-Toxic; Activity [31]: Non-Toxic; Activity [32]: Non-Toxic; log2FC [33]: -6.64; log2FC [34]: -1.31; log2FC [36]: -3.36; Activity [37]: 0.8 mg/dL; Activity [38]: 3%
CN(C)c1ccc(C2C(Cl)C(=O)N2C2=C(Cl)C(=O)c3ccccc3C2=O)cc1 (stereo not given) | -1.9 | -6.64 | -6.64 | 100 | -6.64 | 109 | -1.1 | Non-Toxic | -6.64 | -4.48 | 756 | 1.61 | Non-Toxic | -1.47 | Non-Toxic | 52 | Non-Toxic | 16 | 10.2 | 9300 | Activity [5]: 6.22; Activity [19]: 9.67; log2FC [23]: -6.64; MIC [25]: 15.1 µM (≈ 6.25 µg/mL); Activity [26]: 80%; log2FC [27]: -1.06; Activity [28]: 14.3 g/dL; log2FC [29]: -1.78; Activity [30]: Non-Toxic; Activity [31]: Non-Toxic; Activity [32]: Non-Toxic; log2FC [33]: -6.64; log2FC [34]: -1.69; Activity [35]: Toxic; log2FC [36]: -1.02; Activity [37]: 0.7 mg/dL; Activity [38]: 5%
